Results published in patent publication US20090232909A1, “Method for determining physiological effects of hemoglobin” (priority 1999, published 2009).
Entries after “also recorded” stand apart in the source; their conditions may differ.

Assays:
Format in all cases: biochemical
[1] = biological target: T1, AE1 (Homo sapiens, UniProt P02730); experiment: SNO content of AE1 immunoprecipitates from IOV and RBC membrane extracts; conditions: RBCs treated with 0.1 mM DIDS before NO
T1 construct: immunoprecipitated AE1 with monoclonal antibodies, and measured NO in immunoprecipitates (IPs); endogenous in cells; host or cells: RBCs (fresh venous blood) and IOVs from outdated RBCs; TX-100 or NP-40 extracts
T1 sequence (P02730 1-911): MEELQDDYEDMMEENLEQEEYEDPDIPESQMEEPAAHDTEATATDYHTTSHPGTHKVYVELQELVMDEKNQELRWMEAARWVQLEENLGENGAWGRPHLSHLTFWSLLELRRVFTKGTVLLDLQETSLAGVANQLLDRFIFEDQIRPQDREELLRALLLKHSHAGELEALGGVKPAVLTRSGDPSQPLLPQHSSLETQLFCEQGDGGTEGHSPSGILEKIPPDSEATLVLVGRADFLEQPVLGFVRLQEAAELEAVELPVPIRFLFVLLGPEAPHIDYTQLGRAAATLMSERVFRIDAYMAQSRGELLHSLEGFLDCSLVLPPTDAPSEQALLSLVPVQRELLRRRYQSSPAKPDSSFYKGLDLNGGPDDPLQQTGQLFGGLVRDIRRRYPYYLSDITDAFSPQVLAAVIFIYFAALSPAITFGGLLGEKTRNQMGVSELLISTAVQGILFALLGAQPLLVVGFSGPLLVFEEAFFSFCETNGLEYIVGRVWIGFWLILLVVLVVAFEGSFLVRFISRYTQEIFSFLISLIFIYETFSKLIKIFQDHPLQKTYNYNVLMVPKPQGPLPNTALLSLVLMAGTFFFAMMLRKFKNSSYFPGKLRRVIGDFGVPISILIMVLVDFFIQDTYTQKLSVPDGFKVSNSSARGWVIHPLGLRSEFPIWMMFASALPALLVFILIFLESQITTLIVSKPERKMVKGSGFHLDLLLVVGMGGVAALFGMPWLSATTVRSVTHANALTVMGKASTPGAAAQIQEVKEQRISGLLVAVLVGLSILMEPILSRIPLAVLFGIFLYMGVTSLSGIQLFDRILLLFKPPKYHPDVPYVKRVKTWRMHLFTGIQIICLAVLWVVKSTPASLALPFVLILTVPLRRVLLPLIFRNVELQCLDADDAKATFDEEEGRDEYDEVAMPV
Description: Immunoprecipitation was carried out by incubation of TX-100 or NP-40 extracts with antibodies followed by protein G-Sepharose. We employed two monoclonal anti-AE1 antibodies (Sigma, clone BIII-136, and kindly provided by M. Telen) that recognized epitopes in the cytoplasmic domain and that produced indistinguishable results. Immune complexes were eluted with 10 mM glycine at pH 3.0, and eluates were adjusted immediately to pH 7.4 followed by photolysis/chemiluminescence. Efficiency of immunoprecipitation was confirmed by Western blotting. Binding of SNO-Hb to IOVs was assessed in 10 mM MOPS buffer, pH 7, at room temperature and 21% O2. Incubation was for 15 mins before IOVs were solubilized in 1% TX-100, and heme content was assessed spectrophotometrically. When employed, RBCs were treated for 60 mins with DIDS (0.1 mM; calculated 10-fold molar excess over AE1), then washed thoroughly to remove unreacted DIDS. RBCs were then exposed to NO (as above) or used to prepare DIDS-modified IOVs (as above).
To assess this mechanism, we incubated IOVs with free or Sepharose-bound NO-Hb and also treated RBCs with NO(NO:heme ratio of 1:250), prepared TX-100 or NP-40 extracts of IOVs and RBC membranes, immunoprecipitated AE1 with monoclonal antibodies, and measured NO in immunoprecipitates (IPs). […] SNO was detected at negligible levels in IPs generated with a non-specific mouse IgG (FIGS. 8A-8C). […]

[2] = test system: RBC membrane thiols; experiment: Alkylation of IOV proteins with 14C-iodoacetamide; conditions: DIDS-modified vs unmodified IOVs
Description: FIG. 8G is a fluorographic image of proteins on an SDS-polyacrylamide gel following electrophoresis. […] The position of AE1 on the gel, determined by Western blotting, is indicated. (n=3-8 for A-F).
Thus, inhibition of transnitrosylation by DIDS supports the conclusion that AE1 is the principal acceptor of NO groups transferred from SNO-Hb to the RBC membrane.

[3] = biological target: Hb (Homo sapiens, UniProt P68871+P69905); experiment: metHb production by UV-visible difference spectroscopy after NO addition to variously oxygenated Hb; set-up: purchased Apex Bioscience (Research Triangle Park, N.C.); conditions: 10 mM phosphate
Description: Nitroso/nitrosyl derivatives of Hb were measured using a photolysis-chemiluminescence technique [6-fold excess HgCl2 over protein was added to displace S-nitrosothiol (SNO) (Stamler, J. S., et al., Science, 276:2034-2037, 1997)]. Samples were kept on ice for a period of 5 minutes to 2 hours before analyses. MetHb was monitored by UV-visible spectroscopy as the difference absorption above the linear baseline (600-700 nm), and EPR (below).
The samples used in FIGS. 1A-1D were assayed for metHb production by UV-visible difference spectroscopy. The data are normalized to added [NO]. As in FIGS. 1A-1D: open diamonds, 10 mM phosphate; open circles, 10 mM phosphate plus borate; open squares, 10 mM phosphate plus SOD; filled circles and filled squares, 100 mM phosphate. The dotted (10 mM phosphate) and dashed (100 mM phosphate) lines are calculated by using Eq. 5 and Fe(II)NO yields in FIGS. 1C and 1D, respectively. […] Systematic deviations are most pronounced in low phosphate at high oxygen saturation—i.e., under physiological conditions.

Chain of Hb (P69905 2-142 limits assumed): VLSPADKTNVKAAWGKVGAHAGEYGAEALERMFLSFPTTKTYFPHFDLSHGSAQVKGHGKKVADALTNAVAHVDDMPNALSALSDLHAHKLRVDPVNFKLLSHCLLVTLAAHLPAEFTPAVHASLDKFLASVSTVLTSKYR
Chain of Hb (P68871 2-147 limits assumed): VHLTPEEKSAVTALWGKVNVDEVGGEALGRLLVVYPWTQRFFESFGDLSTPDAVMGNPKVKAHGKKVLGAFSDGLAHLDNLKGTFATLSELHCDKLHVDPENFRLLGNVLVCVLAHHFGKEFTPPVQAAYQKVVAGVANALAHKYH

| SMILES | effect on SNO content of AE1 IPs from RBC membrane extracts [1] | direct modification of sulfhydryls [2] | shortfall in the Fe(III) and Fe(II)NO products [3] |
| --- | --- | --- | --- |
| O=S(=O)(O)c1cc(N=C=S)ccc1C=Cc1ccc(N=C=S)cc1S(=O)(=O)O [DIDS, 4,4′-diisothiocyanatostilbene-2,2′-disulfonic acid] | reduced substantially; also recorded: greatly reduced | did not modify sulfhydryls directly; also recorded: does not directly reduce reactivity |  |
| [N]=O [NO, nitric oxide] |  |  | ≤ 20 % of added [NO]0 |
